# Values quoted from earlier work as cited in publication PMC3160894, “Isolation and Characterization of CvIV4: A Pain Inducing α- Scorpion Toxin” (PLoS ONE, 2011).
# Tested on: Nav1.7
# Conditions: ref [19], [20]
# Excerpt: Given that buthid scorpions produce toxins that bind Na^+ channels in excitable membranes, it is plausible that their venom induces pain by initiating action potentials in nociceptors. Because some human pain disorders involve Na^+ channels expressed in nociceptors, [15], there has been an effort, albeit limited, to determine the components in buthid venom that induce pain with the goal of isolating peptides that discriminate among the DRG-expressed VGSCs. […] Because β-toxins make Na^+ channel ... || CvIV4 also slowed the fast inactivation and produced a persistent Na^+ current in rNav1.2, rNav1.3 and rNav1.4. […] Given that CvIV4 and CeII8 are similar in structure but differ in function and isoform selectivity, a comparison of these two toxins should improve our understanding of the structural characteristics that determine New World scorpion toxin selectivity and function.
row,Substance,Effect on fast inactivation of Nav1.7
1,AahII: α-toxin from Androctonus australis Hector; GenBank P01484,slow the fast inactivation of Nav1.7
2,LqhIII: α-toxin from Leiurus quinquestriatus hebraeus; GenBank P59355,slow the fast inactivation of Nav1.7
3,ODI: α-toxin from Odonthobuthus doriae; GenBank P84646,slow the fast inactivation of Nav1.7
